Measurements taken from patent US9801955B2, “Methods and compositions for detecting drusen and predicting age-related macular degeneration” (University of Maryland, Baltimore, priority 2012, dated 2017).

Assays:
[1] = Staining of tribasic calcium phosphate; type: binding; conditions: compared with HAP
Description: (§1) Hydroxyapatite Bio-Gel HTP resin (Bio-Rad catalog 130-0420) (Bio-Red Laboratories, Inc., Hercules, Calif.) was used as a model for hydroxyapatite in deposits for purposes of collecting emission spectra; stained resin particles were suspended in propylene glycol for fluorescence spectroscopy. Calcium phosphate tribasic (34-40% Ca basis, cat no. C5267), Calcium hydrogen phosphate dihydrate (dibasic, 98%, cat. No. 307653) and calcium phosphate monobasic monohydrate (>85%, cat no. 21053) were all products of Sigma Aldrich and used without further purification. Fluorescence spectra were obtained on a Spectronics AB-2 spectrophotofluorometer with a high pressure xenon lamp.
(§2) The dibasic form of calcium phosphate is listed as 98% pure. […] IRDye 680RD BoneTag was also tested on HAP and drusen. This probe is a long wavelength excitable fluorophore coupled to tetracycline designed as an in vivo bone stain (J. L. Kovar et al., 2011 Anal. Biochem. 416(2):167-173).

[2] = Staining of dibasic calcium phosphate (Example 1); type: binding; conditions: compared with HAP
Description: as §1, §2

[3] = Fluorescent staining of cadaver posterior retinas (sub-RPE deposits, drusen); parameters: species or system human; conditions: for increase in apparent intensity over the fluorescent background of the sub-RPE alone: cadaver posterior retinas
[4] = Nile Red staining of neutral lipids in unfixed whole mounts with drusen on Bruch's membrane (FIG. 8); parameters: species or system human
Protocol: Flat mounts were stained with 1 mg/ml Alizarin Red S (Sigma-Aldrich; Ex: 532 nm Em:620 nm), 20 μM Bone-Tag 680RD (Li-Cor; Ex: 620 nm Em:680 nm), 1 mg/ml tetracycline (Sigma-Aldrich; Ex: 405 nm Em: 570 nm), and 1 mg/ml Xylenol Orange (Sigma-Aldrich; Ex: 532 nm Em:570 nm) in aqueous buffer for 20 minutes at room temperature. Nile Red (Invitrogen, Carsbad, Calif.; Ex: 532 nm Em: 620 nm) was first dissolved in acetone and then diluted in aqueous buffer to 3.5 mg/ml and tissues were incubated for 20 minutes at room temperature.
Without being bound by theory or mechanism, HAP may form on the surface of an existing structure at the RPE/BM interface, for example lipid droplets or lipoproteins. […] The composition of the inner core of HAP spherules was analyzed by mass spectrometric imaging (FIG. 3). […] The native chemical composition was then analysed with time-of-flight secondary ion mass spectrometry (TOF-SIMS), which is well suited, as it combines high lateral resolution (˜250 nm) and very high sensitivity in the range of parts per million, and can image molecular ions and organic molecules over a wide mass range. […] The m/e 184 ion (i.e. from the phosphocholine headgroup fragment from phospholipids) is readily detected by TOF-SIMS as a characteristic marker, so its absence from the spherules implies a strong predominance of cholesterol and/or cholesteryl esters within the spherules.

[5] = Staining of HAP spherules in sub-RPE deposits in flat mounts of cadaver tissues (FIG. 7); parameters: species or system human; conditions: for staining of HAP spherules in sub-RPE deposits: flat mounts of cadaver tissues; for staining pattern in retinal tissue: human cadaveric eyes, FIG. 7
Protocol: The protocol of the study adhered to the tenets of the Declaration for Helsinki regarding research involving human tissue.
(§3) Briefly, the insoluble salts (100 mg in 1 ml 25 mM MOPS pH 7.5 buffer) were stained with 100 ul of 1 mg/ml dye (0.02 nmol/uL of the Bone Tag 680 RD dye) in buffer for 20 minutes at room temperature, followed by two rinses with buffer. Approximately 100 ul of the precipitate (a slurry) was suspended in propylene glycol. Fluorescence emission spectra shown in FIG. 6 were obtained at the excitation wavelengths described in the legend. […] Sub-RPE deposits can be readily identified based on their characteristic faint autofluorescence at excitation: 488 nm and emission: 525 nm).

[6] = Fluorescent staining of authentic hydroxyapatite, emission spectra (Example 2, FIG. 6); type: binding; conditions: for fluorescence of stained hydroxyapatite: 100 mg salt in 25 mM MOPS pH 7.5, 20 minutes at room temperature, suspended in propylene glycol; for specificity for HAP in comparison to dibasic calcium phosphate or zinc phosphate: FIG. 6
Protocol: as §3

[7] = Fluorescent staining of zinc phosphate, specificity control (Example 2, FIG. 6); type: binding; conditions: 25 mM MOPS pH 7.5
Protocol: as §3

[8] = Fluorescent staining of dibasic calcium phosphate, emission spectra (Example 2, FIG. 6); type: binding; conditions: 25 mM MOPS pH 7.5
Protocol: as §3

[9] = Staining of monobasic calcium phosphate; type: binding; conditions: salt slightly soluble
Description: as §1, §2

[10] = Fluorescent staining of HAP chromatographic medium as a model for drusen; type: binding
Description: as §1, §2

[11] = Staining of the elastin layer of the Bruch's membrane in cadaver retina; parameters: species or system human
[12] = Staining of insoluble zinc phosphate (Example 1); type: binding

| Structure (SMILES) | staining of tribasic calcium phosphate [1] | staining of dibasic calcium phosphate [2] | increase in apparent intensity over the fluorescent background of the sub-RPE alone [3] | labelling of lipid inclusions in drusen [4] | staining of HAP spherules in sub-RPE deposits [5] | staining pattern in retinal tissue [5] | fluorescence of stained hydroxyapatite [6] | specificity for HAP in comparison to dibasic calcium phosphate or zinc phosphate [6] | staining of zinc phosphate [7] | staining of dibasic calcium phosphate [8] | staining of monobasic calcium phosphate [9] | change in fluorescence quantum yield upon binding HAP [10] | fluorescent staining of HAP (fluorescence emission when bound) ([10]; HAP chromatographic medium, stained, rinsed in distilled water, suspended in propylene glycol) | staining of the elastin layer of the Bruch's membrane [11] | contrast compared with tetracycline ([3]; cadaver posterior retina, excitation 550-600 nm, emission 650 nm) | adherence of stain to insoluble zinc phosphate [12] |
| --- | --- | --- | --- | --- | --- | --- | --- | --- | --- | --- | --- | --- | --- | --- | --- | --- |
| CN(C)[C@@H]1C(O)=C(C(N)=O)C(=O)[C@@]2(O)C(O)=C3C(=O)c4c(O)cccc4[C@@](C)(O)[C@H]3C[C@@H]12.Cl [Tetracycline HCl, Tetracycline hydrochloride] | less well than HAP | less well than HAP | eight-fold |  |  |  |  |  |  |  |  |  |  |  |  |  |
| CCN(CC)c1ccc2nc3c4ccccc4c(=O)cc-3oc2c1 [Nile Red] |  |  |  | labelled a large number of spherical inclusions |  |  |  |  |  |  |  |  |  |  |  |  |
| Cc1cc(C2(c3cc(C)c(O)c(CN(CC(=O)O)CC(=O)O)c3)OS(=O)(=O)c3ccccc32)cc(CN(CC(=O)O)CC(=O)O)c1O [Xylenol Orange] |  |  |  |  | effectively stained spherules | very similar staining patterns | only significant fluorescence from stained specimens is observed with hydroxyapatite | specific for HAP | did not stain significantly | did not stain significantly |  |  |  |  |  |  |
| O=C1c2ccccc2C(=O)c2c1cc(S(=O)(=O)O)c(O)c2O [Alizarin Red S, 9,10-dihydro-3,4-dihydroxy-9,10-dioxo-2-anthracenesulfonic acid] | less well than HAP | less well than HAP | fifteen-fold |  | effectively stained spherules | very similar staining patterns | only significant fluorescence from stained specimens is observed with hydroxyapatite | specific for HAP | did not stain significantly | did not stain significantly | no staining was evident | substantial increase | bright fluorescence emission when bound to the HAP that did not rinse off despite repeated washes with buffer | No staining | two-fold | did not appear that either stain was adhered |
